IC50 data for 39 molecules are collected here from patent US12503452B2 (Curza Global, LLC, priority 2019, dated 2025).

Assay [1] relates to E. coli S30 extract (bacterial protein synthesis). Briefly: E. coli S30 extract coupled transcription-translation luciferase assay (inhibition of bacterial protein synthesis). Type of assay: biochemical. As to conditions: read-out: S30 IC50 (μM/% inhib.). Here is the method:
E. coli S30 extract: Inhibition of bacterial protein synthesis was determined using the E. coli S30 Extract System for Circular DNA (Promega catalog #L-2010) and Luciferase Assay Reagent (Promega catalog #E1500) with slight modifications to a published protocol. Fyfe, C., Sutcliffe, J. A. and Grossman, T. H. (2012) “Development and characterization of a Pseudomonas aeruginosa in vitro coupled transcription-translation assay system for evaluation of translation inhibitors” J. Microbiol. Methods 90(3), 256-261.
Compounds were serial diluted in 0.5 mL microcentrifuge tubes by mixing and transferring 50 μL from the highest concentration to 50 μL of water, mixing and transferring 50 μL of this 2-fold dilution to 50 μL of water. This mixing and transferring was repeated so that there are a total of 8 tubes with serial dilutions of compound at 10× the desired screening concentration that are ultimately diluted to 1× by the addition of S30 luciferase synthesis mixture. Serial dilutions of compounds were added (2 μL) to wells in a black round bottom 96-well plate. Water (2 μL) was used as a “no inhibitor” control in 4 wells/plate. No DNA control reaction mixture (20 μL; see below) was used as a control in 4 wells/plate for background luminescence. S30 luciferase synthesis mixture (18 μL; see below) was added to wells with compounds or water mixture and incubated at 37° C. for 1 hour. Reactions were stopped by transferring to 4° C. refrigerator for 5 minutes then 25 μL of luciferase activity mix was added. Luminescence was measured using a BioTek Synergy HTX plate reader. % Inhibition was determined relative to no inhibitor controls.
S30 luciferase synthesis mixture:
• 445 μL S30 extract, circular • 712 μL S30 Premix without amino acids • 4.45 μL pBESTluc™ DNA (1 μg/μL) • 78 μL complete amino acid mixture • 267 μL water No DNA control: • 20 μL S30 extract, circular • 32 μL S30 Premix without amino acids • 7 μL complete amino acid mixture • 21 μL water Rabbit Reticulocyte lysate

The target in assay [2] is Rabbit Reticulocyte Lysate (eukaryotic protein synthesis). The experiment in a line: Rabbit reticulocyte lysate luciferase assay (inhibition of eukaryotic protein synthesis). The following applies: read-out: Rabbit reticulocyte IC50 (μM/% inhib.). The format is biochemical. Here is the method:
Inhibition of eukaryotic protein synthesis was determined using the Rabbit Reticulocyte Lysate System, Nuclease-Treated from Promega (catalog #L-4960) with slight modifications to the manufacturer's protocol. Compounds were serial diluted in 0.5 mL microcentrifuge tubes by mixing and transferring 50 μL from the highest concentration to 50 μL of water, mixing and transferring 50 μL of this 2-fold dilution to 50 μL of water. This mixing and transferring was repeated so that there are a total of 8 tubes with serial dilutions of compound at 10× the desired screening concentration that are ultimately diluted to 1× by the addition of rabbit reticulocyte luciferase synthesis mixture. Serial dilutions of compounds were added ([…]) to wells in a black round bottom 96-well plate. Water (2.5 μL) was used as a “no inhibitor” control in 4 wells/plate. No RNA control reaction mixture ([…]; see below) was used as a control in 4 wells/plate for background luminescence. Rabbit reticulocyte luciferase synthesis mixture (22.5 μL; see below) was added to wells with compounds or water mixture and incubated at 30° C. for 90 minutes. Luciferase assay reagent (25 μL) was added with luminescence measured using a BioTek Synergy HTX plate reader. % Inhibition was determined relative to no inhibitor controls.
Rabbit reticulocyte luciferase synthesis mixture:
• 1,000 μL rabbit reticulocyte lysate • 5.7 μL Luciferase Control RNA (1 μg/μL) • 26 μL complete amino acid mixture • 395 μL water No RNA Control • 70 μL rabbit reticulocyte lysate • 2 μL complete amino acid mixture • 28 μL water Minimum Inhibitory Concentration (MIC)

The mark [3] stands for this setting: class by IC50 or % inhibition @ 1 μM.

Structures are written as SMILES. Read-outs that look alike come from different tables or passages of the source.

`CC1CN(Cc2ccc(-n3ccc(NC(=O)N4CCN(C(=O)[C@@](C)(N)CO)CC4)nc3=O)cc2)CCC1N` (stereo in doubt) [Compound 224]: the IC50 in assay [1] (setting [3]) is under 0.5 µM; in assay [2] (setting [3]) it was over 1 µM.
For the molecule `CC1(N)CCN(CCc2ccc(-n3ccc(NC(=O)N4CCN(C(=O)C(C)(N)CO)CC4)nc3=O)cc2)CC1` (stereo in doubt) [Compound 361], the IC50 in assay [1] (% inhibition @ 1 μM) and in assay [2] (% inhibition @ 1 μM) was over 1 µM in each case.
`CC(C)(N)C(=O)N1CCN(C(=O)Nc2ccn(-c3ccc(CCN4CCC(CN)CC4)cc3)c(=O)n2)CC1` [Compound 1]: the values for the IC50 in assay [1] (setting [3]) and in assay [2] (setting [3]) were 0.5 to 1 µM and over 1 µM, respectively.
On to `CC(C)(N)C(=O)N1CCN(C(=O)Nc2ccn(-c3cccc(CCN4CCCC(CN)C4)c3)c(=O)n2)CC1` (stereo not drawn) [Compound 3], for which, in assay [1] (setting [3]), the IC50 is over 1 µM.
Take `CNC1CCN(CCc2cccc(-n3ccc(NC(=O)N4CCN(C(=O)C(C)(C)N)CC4)nc3=O)c2)CC1` [Compound 4]: the IC50 in assay [1] (setting [3]) was over 1 µM.
`CC(C)(N)C(=O)N1CCN(C(=O)Nc2ccn(-c3cccc(CCN4CC[C@@H](N)C4)c3)c(=O)n2)CC1` [Compound 5]: the IC50 in assay [1] (setting [3]) and in assay [2] (setting [3]) was over 1 µM each time.
Consider `CC(C)(N)C(=O)N1CCN(C(=O)Nc2ccn(-c3cccc(CCN4CC[C@H](N)C4)c3)c(=O)n2)CC1` [Compound 6], for which the IC50 in assay [1] (setting [3]) and in assay [2] (setting [3]) was over 1 µM in each case.
As for `CC(C)(N)C(=O)N1CCN(C(=O)Nc2ccn(-c3ccc(CCN4CC[C@H](N)C4)cc3)c(=O)n2)CC1` [Compound 7], the IC50 in assay [1] (setting [3]) is over 1 µM.
As to `CC(C)(N)C(=O)N1CCN(C(=O)Nc2ccn(-c3ccc(CCN4CCC[C@H](N)C4)cc3)c(=O)n2)CC1` [Compound 9], the IC50 in assay [1] (setting [3]) is over 1 µM.
As to `CC(C)(N)C(=O)N1CCN(C(=O)Nc2ccn(-c3ccc(CCN4CCCC(CN)C4)cc3)c(=O)n2)CC1` (stereo not drawn) [Compound 10], the IC50 in assay [1] (setting [3]) is under 0.5 µM; in assay [2] (setting [3]) it was over 1 µM.
With `C[C@](N)(CO)C(=O)N1CCN(C(=O)Nc2ccn(-c3ccc(CCN4CC[C@@H](N)C4)cc3)c(=O)n2)CC1` [Compound 11], the results for the IC50 in assay [1] (setting [3]) and in assay [2] (setting [3]) were 0.5 to 1 µM and over 1 µM, respectively.
The like results for `C[C@](N)(CO)C(=O)N1CCN(C(=O)Nc2ccn(-c3ccc(CCN4CC[C@H](N)C4)cc3)c(=O)n2)CC1` [Compound 13] were, in that order, over 1 µM and over 1 µM.
`CC(C)(N)C(=O)N1CCN(C(=O)Nc2ccn(-c3ccc(CCN4CC(N)C4)cc3)c(=O)n2)CC1` [Compound 16]: the IC50 in assay [1] (setting [3]) and in assay [2] (setting [3]) was over 1 µM throughout.
Consider `CC(C)(N)C(=O)N1CCN(C(=O)Nc2ccn(-c3ccc(CCN4CC[C@H](CN)C4)cc3)c(=O)n2)CC1` [Compound 17], for which the IC50 in assay [1] (setting [3]) was under 0.5 µM; in assay [2] (setting [3]), over 1 µM.
The like results for `CC(C)(N)C(=O)N1CCN(C(=O)Nc2ccn(-c3ccc(CCN4CC[C@@H](CN)C4)cc3)c(=O)n2)CC1` [Compound 18] were, in that order, under 0.5 µM and over 1 µM.
For `CN(C)C1CCCN(CCc2ccc(-n3ccc(NC(=O)N4CCN(C(=O)C(C)(C)N)CC4)nc3=O)cc2)CC1` (stereo not drawn) [Compound 36], the IC50 in assay [1] (setting [3]) and in assay [2] (setting [3]) was over 1 µM throughout.
Take `CC(C)(N)C(=O)N1CCN(C(=O)Nc2ccn(-c3ccc(C(C)(C)CN4CCCC(N)CC4)cc3)c(=O)n2)CC1` (stereo not drawn) [Compound 37]: the IC50 in assay [1] (setting [3]) and in assay [2] (setting [3]) was over 1 µM in each case.
Turning to `CC(C)(N)C(=O)N1CCN(C(=O)Nc2ccn(-c3ccc(C(C)(C)CN4CC[C@@H](CN)C4)cc3)c(=O)n2)CC1` [Compound 38], the IC50 in assay [1] (setting [3]) and in assay [2] (setting [3]) was over 1 µM in each case.
On to `CC(C)(N)C(=O)N1CCN(C(=O)Nc2ccn(-c3ccc(C(C)(C)CN4CC[C@H](CN)C4)cc3)c(=O)n2)CC1` [Compound 39], for which the IC50 in assay [1] (setting [3]) and in assay [2] (setting [3]) was over 1 µM in each case.
As for `CC(C)(N)C(=O)N1CCN(C(=O)Nc2ccn(-c3ccc(C4(CN5CCCC(N)CC5)CC4)cc3)c(=O)n2)CC1` (stereo not drawn) [Compound 40], the IC50 in assay [1] (setting [3]) and in assay [2] (setting [3]) was over 1 µM in each case.
For the molecule `NCC1CCCN(C(=O)Nc2ccn(-c3ccc(CN4CCC(N)CC4)cc3)c(=O)n2)C1` (stereo not drawn) [Compound 46], the IC50 in assay [1] (setting [3]) and in assay [2] (setting [3]) was over 1 µM in each case.
`NC1CCN(Cc2ccc(-n3ccc(NC(=O)N4CCC[C@@H](N)C4)nc3=O)cc2)CC1` [Compound 47]: the IC50 in assay [1] (setting [3]) and in assay [2] (setting [3]) was over 1 µM each time.
With `NC1CCN(Cc2ccc(-n3ccc(NC(=O)N4CCC[C@H](N)C4)nc3=O)cc2)CC1` [Compound 48], the IC50 in assay [1] (setting [3]) and in assay [2] (setting [3]) was over 1 µM throughout.
Regarding `NC1CCN(Cc2ccc(-n3ccc(NC(=O)N4C[C@H]5CNC[C@H]5C4)nc3=O)cc2)CC1` [Compound 50], the IC50 in assay [1] (setting [3]) and in assay [2] (setting [3]) was over 1 µM in each case.
For `NCC1CN(C(=O)Nc2ccn(-c3ccc(CN4CCC(N)CC4)cc3)c(=O)n2)CCO1` (stereo not drawn) [Compound 51], the IC50 in assay [1] (setting [3]) and in assay [2] (setting [3]) was over 1 µM in each case.
For `NC[C@H]1CCN(C(=O)Nc2ccn(-c3ccc(CN4CCC(N)CC4)cc3)c(=O)n2)C1` [Compound 52], the IC50 in assay [1] (setting [3]) and in assay [2] (setting [3]) was over 1 µM throughout.
Take `NC[C@@H]1CCN(C(=O)Nc2ccn(-c3ccc(CN4CCC(N)CC4)cc3)c(=O)n2)C1` [Compound 53]: the IC50 in assay [1] (setting [3]) and in assay [2] (setting [3]) was over 1 µM throughout.
Regarding `NC1CCN(Cc2ccc(-n3ccc(NC(=O)N4CCCNCC4)nc3=O)cc2)CC1` [Compound 54], the IC50 in assay [1] (setting [3]) and in assay [2] (setting [3]) was over 1 µM in each case.
Consider `CCC1CN(C(=O)C(C)(C)N)CCN1C(=O)Nc1ccn(-c2ccc(CN3CCC(N)CC3)cc2)c(=O)n1` (stereo not drawn) [Compound 55], for which the IC50 is 0.5 to 1 µM in assay [1] (setting [3]) and over 1 µM in assay [2] (setting [3]).
With `C[C@@H]1CN(C(=O)C(C)(C)N)[C@@H](C)CN1C(=O)Nc1ccn(-c2ccc(CN3CCC(N)CC3)cc2)c(=O)n1` [Compound 60], the IC50 in assay [2] (setting [3]) is over 1 µM.
As to `COC(=O)[C@@H]1CN(C(=O)C(C)(C)N)CCN1C(=O)Nc1ccn(-c2ccc(CN3CCC(N)CC3)cc2)c(=O)n1` [Compound 63], the IC50 in assay [1] (setting [3]) was 0.5 to 1 µM; in assay [2] (setting [3]), over 1 µM.
In the case of `CC[C@H]1CN(C(=O)Nc2ccn(-c3ccc(CN4CCC(N)CC4)cc3)c(=O)n2)CCN1C(=O)C(C)(C)N` [Compound 66], the IC50 in assay [1] (setting [3]) and in assay [2] (setting [3]) was over 1 µM throughout.
On to `CC[C@@H]1CN(C(=O)Nc2ccn(-c3ccc(CN4CCC(N)CC4)cc3)c(=O)n2)CCN1C(=O)C(C)(C)N` [Compound 67], for which the IC50 in assay [1] (setting [3]) and in assay [2] (setting [3]) was over 1 µM each time.
Consider `C[C@H]1CN(C(=O)Nc2ccn(-c3ccc(CN4CCC(N)CC4)cc3)c(=O)n2)CCN1C(=O)C(C)(C)N` [Compound 72], for which the IC50 was 0.5 to 1 µM in assay [1] (setting [3]) and over 1 µM in assay [2] (setting [3]).
On to `CC(C)(N)C(=O)N1CCN(C(=O)Nc2ccn(-c3ccc(CN4CCC(N)CC4)cc3)c(=O)n2)CC1(C)C` [Compound 73], for which the IC50 in assay [2] (setting [3]) is over 1 µM.
The same measure, in the same setting: as for `CC(C)(N)C(=O)N1CCN(C(=O)Nc2ccn(-c3ccc(CN4CCC(N)CC4)cc3)c(=O)n2)CC1c1ccccc1` (stereo not drawn) [Compound 75], the figure is over 1 µM; as for `C[C@@H]1CN(C(=O)C(C)(C)N)C[C@H](C)N1C(=O)Nc1ccn(-c2ccc(CN3CCC(N)CC3)cc2)c(=O)n1` [Compound 76], over 1 µM.
As to `CC(C)[C@H]1CN(C(=O)C(C)(C)N)CCN1C(=O)Nc1ccn(-c2ccc(CN3CCC(N)CC3)cc2)c(=O)n1` [Compound 77], the IC50 in assay [1] (setting [3]) and in assay [2] (setting [3]) was over 1 µM in each case.
Regarding `CC(C)(N)CC(=O)N1CCN(C(=O)Nc2ccn(-c3ccc(CCN4CCC(N)CC4)cc3)c(=O)n2)CC1` [Compound 197], in assay [1] (setting [3]), the IC50 was over 1 µM.
